{"source": "patent US20200001109A1", "about": "“Methods For Treating Hyperbilirubinemia With Stannsoporfin And Phototherapy” (INFACARE PHARMACEUTICAL CORPORATION, priority 2016, published 2020)", "key": {"[1]": {"test_system": "total serum bilirubin (TSB)", "experiment": "Phase 2b randomized, placebo-controlled trial of single IM stannsoporfin with phototherapy: efficacy on TSB", "type": "in vivo, human infants", "details": "for Rebound Hyperbilirubinemia N: TSB at or above PT threshold after discontinuation of initial PT; for LS Mean Difference vs Placebo in TSB at 48 hrs: difference in TSB percentage change from baseline vs placebo plus phototherapy; for PT Failure N: exchange transfusion, IVIG use, readmission for hyperbilirubinemia or re-started PT; for Time at which TSB crosses at or below the PT threshold, Median: plus phototherapy; for LS Mean Percentage Change in TSB at 48 hrs: single IM injection plus phototherapy, change from baseline, LOCF", "description": "(§1) A Phase 2b multicenter, double-blind, randomized, placebo-controlled parallel group safety and efficacy trial of two doses of stannsoporfin administered as a single intramuscular injection in combination with phototherapy in term and near-term infants has been proposed and performed.\n(§2) Infants will be randomized to one of three treatment arms: placebo, 3.0 mg/kg, or 4.5 mg/kg of stannsoporfin in a 1:1:1 ratio. Infants aged 0 to 48 hours (at the time the qualifying TSB is drawn) with ABO or Rh incompatibility who are DAT-positive, or age 0 to 72 hours (at the time the qualifying TSB is drawn) with G6PD deficiency, confirmed by a documented blood test, who require the initiation of phototherapy are eligible for the study. In addition, patients aged 0 to 48 hours (at the time the qualifying TSB is drawn) with ABO or Rh incompatibility who are DAT negative (or status unknown), and have an increased reticulocyte count (>6%), and require the initiation of phototherapy are eligible for the study.\nInclusion Criteria: 1) Term and near-term infants ≥35 and ≤43 weeks gestational age (GA), age 0-48 hours (at the time the qualifying TSB is drawn) with ABO or Rh incompatibility (anti C, c, D, E or e) who are DAT-positive, or age 0-72 hours (at the time the qualifying TSB is drawn) with G6PD deficiency as confirmed by a documented blood test; OR 2) Term and near-term infants ≥35 and ≤43 weeks GA, age 0-48 hours (at the time the qualifying TSB is drawn) with ABO or Rh incompatibility (anti C, c, D, E or e) who are DAT-negative (or status unknown) and have an increased reticulocyte count (>6%); parental or guardian written consent; birth weight ≥2500 grams; TSB at or above the age-specific threshold for initiating phototherapy per the AAP guidelines (see FIG. 1 and Tables 1, 2 and 3); and parents agree to observe light precautions for 10 days post treatment\nOnce the patient's TSB is at or above the age-specific threshold for phototherapy and all inclusion and no exclusion criteria are met (including laboratory criteria), patients will be immediately randomized to receive a single intramuscular dose of either placebo (saline), 3.0 mg/kg of stannsoporfin or 4.5 mg/kg of stannsoporfin.\nCriteria for discontinuing phototherapy: The criteria for discontinuing phototherapy will be standardized. If a TSB measurement is obtained during phototherapy treatment that is below the age-specific threshold for phototherapy (FIG. 1), phototherapy should be discontinued. In order to check for rebound hyperbilirubinemia, a TSB level is to be obtained between 6 and 12 hours after phototherapy is discontinued (must be done before discharge). If the patient remains in the hospital and continues on phototherapy past 48 hours further assessments and procedures are to be conducted as listed in the Time and Event Table (Table 8).\nInitiation of Phototherapy: Once the TSB result has been received, the administration of study drug and initiation of phototherapy should occur as soon as practical. phototherapy should be started within a window of no more than ±30 minutes from IMP administration.\nPhototherapy must be narrow spectrum blue light with a single overhead unit. The height of the phototherapy unit should be adjusted to obtain an irradiance of 30 microwatts/cm2/nm at the level of the patient's abdomen. Irradiance should be measured and adjusted to maintain 30 microwatts/cm2/nm, until phototherapy is discontinued. The recordings are to be documented in the eCRF.\nMonitoring during phototherapy: It is essential to protect the patient's eyes with opaque eye patches. These must be checked periodically to ensure complete eye coverage during phototherapy. Use of biliblankets or home phototherapy is not permitted. TSB levels will be done at 6, 12, 18, 24, 30, 36±2 h, and 48 hours±6 h after study drug administration (Table 8). If the patient continues on phototherapy past 48 hours, the TSB will be obtained every 12±6 h. […]"}, "[2]": {"experiment": "Phase 2b trial of stannsoporfin with phototherapy: safety (adverse events)", "type": "in vivo, human infants", "description": "as §1, §2\nSafety outcome measures are: Incidence of adverse events and serious adverse events, changes in vital sign measurements, results of physical exam (PE) including eye and hearing assessment, results of neurologic exam, ECG assessments, clinical laboratory tests including hematology, serum chemistries, liver function and renal function tests. Adverse events and SAEs will be summarized for each treatment group and overall for both stannsoporfin treatment groups with the proportion of patients reporting each event. Actual values and change from baseline in vital signs, physical and neurologic exam and laboratory test parameters will be summarized for each treatment group and overall for both stannsoporfin treatment groups with descriptive statistics at each assessment obtained. Changes in ECG findings, ophthalmologic and audiology assessments will be summarized for each treatment group and overall for both stannsoporfin treatment groups with descriptive statistics at each assessment obtained, including changes from baseline to Day 30 (early term). Efficacy and safety parameters will also be analyzed according to DAT status.\nThe results from a Phase 2b multicenter, double blind, randomized, placebo controlled parallel group safety and efficacy trial of two doses of stannsoporfin administered as a single intramuscular (IM) injection in combination with phototherapy (PT) in term and near-term infants, all with an ABO/Rh incompatibility were highly statistically significant and positive. Ninety-one neonates (aged 24 hours of age, range 7 to 54 hours), all at medium to high risk of severe hyperbilirubinemia, all with an ABO/Rh incompatibility, birth weights of 2580 to 4930 grams, and gestational age of 35 to 42 weeks, were randomized to one of three treatment arms: placebo (saline), 3.0 mg/kg stannsoporfin, or 4.5 mg/kg of stannsoporfin. All were included in the intent-to-treat-primary efficacy and safety analyses.\nTEAEs occurred in 59% of Stannsoporfin treated infants vs 52% among placebo. Serious TEAEs occurred in 15% of Stannsoporfin treated infants vs 20% of placebo. TEAEs related to phototherapy (eg skin rash, erythema) occurred in 16% of Stannsoporfin treated infants vs 10% of placebo."}, "[3]": {"test_system": "total serum bilirubin (TSB)", "details": "3.0 and 4.5 mg/kg stannsoporfin patients receiving phototherapy; previous study (placebo 41%); cited from earlier work"}, "[4]": {"details": "Stannsoporfin 3.0 mg/kg (N = 30)"}, "[5]": {"details": "Stannsoporfin 4.5 mg/kg (N = 31)"}, "[6]": {"details": "Stannsoporfin Combined (N = 61)"}, "[7]": {"details": "both high dose (4.5 mg/kg) and low dose (3.0 mg/kg), compared with phototherapy and placebo"}, "[8]": {"details": "all treatment arms of the trial"}}, "data": [{"smiles": "CCC1=C(C)c2cc3[n-]c(cc4[n-]c(cc5nc(cc1n2)C(C)=C5CC)c(C)c4CCC(=O)O)c(CCC(=O)O)c3C.[Cl-].[Cl-].[Sn+4]", "note": "[Stannsoporfin, tin-mesoporphyrin IX dichloride]", "values": [{"measurement": "PT Failure (%)", "setting": "[1]; [4]", "result": "(10%)"}, {"measurement": "PT Failure Odds Ratio vs Placebo", "setting": "[1]; [4]", "result": 0.31}, {"measurement": "Rebound Hyperbilirubinemia (%)", "setting": "[1]; [4]", "result": "(9%)"}, {"measurement": "Rebound Hyperbilirubinemia N", "setting": "[1]; [4]", "result": "0/30"}, {"measurement": "LS Mean Difference vs Placebo in TSB at 48 hrs", "setting": "[1]; [4]", "result": "−31.69"}, {"measurement": "PT Failure N", "setting": "[1]; [4]", "result": "3/30"}, {"measurement": "Time at which TSB crosses at or below the PT threshold, Median", "setting": "[1]; [4]", "result": 11.8, "unit": "h"}, {"measurement": "LS Mean Percentage Change in TSB at 48 hrs", "setting": "[1]; [4]", "result": "−9.5", "unit": "%"}, {"measurement": "PT Failure (%)", "setting": "[1]; [5]", "result": "(3%)"}, {"measurement": "PT Failure Odds Ratio vs Placebo", "setting": "[1]; [5]", "result": 0.09}, {"measurement": "Rebound Hyperbilirubinemia (%)", "setting": "[1]; [5]", "result": "(3%)"}, {"measurement": "Rebound Hyperbilirubinemia N", "setting": "[1]; [5]", "result": "1/31"}, {"measurement": "LS Mean Difference vs Placebo in TSB at 48 hrs", "setting": "[1]; [5]", "result": "−27.69"}, {"measurement": "PT Failure N", "setting": "[1]; [5]", "result": "1/31"}, {"measurement": "Time at which TSB crosses at or below the PT threshold, Median", "setting": "[1]; [5]", "result": 10.6, "unit": "h"}, {"measurement": "LS Mean Percentage Change in TSB at 48 hrs", "setting": "[1]; [5]", "result": "−5.5", "unit": "%"}, {"measurement": "PT Failure (%)", "setting": "[1]; [6]", "result": "(7%)"}, {"measurement": "PT Failure Odds Ratio vs Placebo", "setting": "[1]; [6]", "result": 0.20}, {"measurement": "Rebound Hyperbilirubinemia (%)", "setting": "[1]; [6]", "result": "(2%)"}, {"measurement": "Rebound Hyperbilirubinemia N", "setting": "[1]; [6]", "result": "1/61"}, {"measurement": "LS Mean Difference vs Placebo in TSB at 48 hrs", "setting": "[1]; [6]", "result": "−29.69"}, {"measurement": "PT Failure N", "setting": "[1]; [6]", "result": "4/61"}, {"measurement": "Time at which TSB crosses at or below the PT threshold, Median", "setting": "[1]; [6]", "result": 11.6, "unit": "h"}, {"measurement": "LS Mean Percentage Change in TSB at 48 hrs", "setting": "[1]; [6]", "result": "−7.4", "unit": "%"}, {"measurement": "effect on percentage change in total serum bilirubin (TSB) at 24 hours after drug administration", "setting": "[1]; [7]", "result": "highly statistically significant (P<0.0001) positive effect"}, {"measurement": "effect on percentage change in total serum bilirubin (TSB) at 48 hours after drug administration", "setting": "[1]; [7]", "result": "highly significant (P<0.0001) positive effect"}, {"measurement": "effect on percentage change in total serum bilirubin (TSB) at 48 hours after drug administration", "setting": "[1]; both high dose (4.5 mg/kg) and low dose (3.0 mg/kg), compared with phototherapy and placebo, listed as stannsoporfin", "result": "statistically significant positive effect"}, {"measurement": "Serious TEAEs, proportion of infants", "setting": "[2]; Stannsoporfin treated infants (both doses) plus phototherapy, vs 20% of placebo", "result": 15, "unit": "%"}, {"measurement": "treatment-emergent adverse events (TEAEs), proportion of infants", "setting": "[2]; Stannsoporfin treated infants (both doses) plus phototherapy, vs 52% among placebo", "result": 59, "unit": "%"}, {"measurement": "TEAEs related to phototherapy (eg skin rash, erythema), proportion of infants", "setting": "[2]; Stannsoporfin treated infants (both doses), vs 10% of placebo", "result": 16, "unit": "%"}, {"measurement": "discontinuation of the study due to an adverse event", "setting": "[2]; [8]", "result": "no infant discontinued the study due to an adverse event"}, {"measurement": "infant deaths", "setting": "[2]; [8]", "result": "no infant deaths"}, {"measurement": "safety signals", "setting": "[2]; either dose (3.0 or 4.5 mg/kg)", "result": "no safety signals"}, {"measurement": "increase in TSB at 48 hours", "setting": "[3]", "result": 15, "unit": "%"}]}]}
